According to patent US8383136B2, “Micelle encapsulation of therapeutic agents” (Wisconsin Alumni Research Foundation, priority 2009, dated 2013):
In brackets after ≈: the same amount, converted by molar mass. Several values for one entry are separate records, joined by “and”; a condition that tells them apart may be missing. Equal values may be shown once. Read-outs that look alike come from different tables or passages of the source. Each block holds one compound with its values, some of them ahead of it.

Tests used:
[1] = % drug loading of PEG-b-PLA micelles (wt drug(s)/wt polymer); assay type: physicochemical; details: all drugs of the SDM or MDM together, PEG-b-PLA (4.2K:1.9K) micelles
Experimental: Drug(s) to polymer w/w percent was calculated for SDM and MDM. PEG-b-PLA micelles were freeze dried, weighed and the amount of drug(s) in the freeze dried sample was quantified by HPLC. The drug w/w percent was calculated as the mass of the drug(s) to the mass of polymer in the freeze dried sample multiplied by 100.

[2] = Dynamic light scattering size of SDM and MDM; assay type: physicochemical; details: DLS, drug-loaded SDM or MDM
Experimental: The drug-loaded micellar solutions were diluted 20 times with DD H2O and the samples was equilibrated for 2 min at 25° C. before the measurements. […] The hydrodynamic diameter of PEG-b-PLA micelles was calculated based on the Stokes-Einstein equation. Correlation function was curve fitted by cumulant method to calculate mean size and polydispersion index (PDI). All measurements were repeated three times, and volume-weighted particle sizes were presented as the average diameter with standard deviation.

[3] = Physical stability / drug loss from PEG-b-PLA micelles after 24 hours (turbidity, HPLC); assay type: physicochemical; details: for initial drug level in water / drug level @ 24 hr in water / % w/w drug(s) left @ 24 hr: PEG-b-PLA micelles; for drug precipitated at 24 hours: SDM, HPLC data; for time the micelles were physically stable: turbidity, ambient temperature
Experimental: Turbidity measurements were used to evaluate the physical stability of drug-loaded PEG-b-PLA micelles. A CARY 50 BIO UV-Visible spectrophotometer equipped with dip probe was used to measure turbidity. Micellar solutions were diluted six times, for a final concentration of PEG-b-PLA of 5 mg/mL, with DD H2O and filtered through 0.45 μm filter. […] Each measurement was performed in triplicate.

[4] = In vitro drug release from PEG-b-PLA micelles (dialysis method); assay type: physicochemical; details: 12.5 mM PBS, pH=7.4, 37° C.
Experimental: (§1) SDMs or MDMs were prepared and characterized as described above. Post micelle preparation each sample was diluted with DD H2O, to yield about 0.10 mg/mL of each drug. A volume of 2.5 mL of the prepared sample was loaded into a 3 mL Slide-A-Lyzer® (Thermo Scientific Inc.) dialysis cassette with a MWCO of 20,000 g/mol. Four cassettes were used in each experiment. The cassettes were placed in 2.0 L of buffer which was changed every 3 hours to ensure sink conditions for drug(s) and polymer. A sample of 100 μL was drawn from each cassette at various sampling time intervals and then replaced with 100 μL of fresh buffer. […] The amount of drug(s) in each sample was quantified by HPLC as described above.
Statistical analysis was performed using one-way ANOVA at 5% significance level combined with Tukey's Multiple Comparison Test or t-test at 5% significance level. Curve-fitting analysis using one phase exponential association was used to calculate the half-life (t1/2) of drug in in vitro drug release experiments. Both analyses were performed using GraphPad Prism version 5.00 for Windows, Graph-Pad Software, San Diego Calif. USA, www.graphpad.com.
as §1, with “Post-micelle preparation,” for “Post micelle preparation”, “yield samples of” for “yield”, “reverse phase HPLC.” for “HPLC as described above.”

[5] = test system: A549 human non-small cell lung cancer cells; assay: In vitro cytotoxicity, resazurin assay, and combination index; assay type: cell-based; details: drug(s) in SDM or MDM, 72 hours, unit inferred
Experimental: (§2) MCF-7 human breast cancer cells were cultured in DMEM medium while 4T1 murine breast cancer cells, A549 human non-small cell lung cancer cells, and LS180 human colon cancer cells were cultured in RPMI1640 medium. Both media were supplemented with 10% fetal bovine serum (FBS) with antibiotics under 5% CO2 and 37° C. in an incubator. […] Free drugs were dissolved in DMSO, and drug-loaded PEG-b-PLA micelles were in deionized water. The samples were diluted with cell culture media to make 0.10, 1.0, 10, 100 and 1000 nM in 96 well plates. […] The metabolic conversion of resazurin dye by each viable cancer cell was quantified using a fluorescence cell plate reader (SpectraMax M2, Molecular Devices, USA) to estimate cell viability. […] IC50 values of free drugs and drug-loaded PEG-b-PLA micelles were calculated based on median-effect equation using Compusyn software (ver. 1.0).
(§3) CI values were obtained at IC50 values for 2- or 3-drug combinations. CI<1, C=1, and CI>1 were used as criteria to determine whether 2- or 3-drug combinations are synergistic, additive, and antagonistic, respectively (FIGS. 13-20).

[6] = test system: MCF-7 human breast cancer cells; assay: as above; assay type: cell-based; details: MCF-7, drug(s) in SDM or MDM (PEG-b-PLA micelles), 72 hours, nM printed in b258 only, PTX/17-AAG 3.2:1, RAP/17-AAG 1:1, RAP/PTX 1:1, RAP/PTX/17-AAG 1:5:1
Experimental: as §2, §3

[7] = test system: 4T1 murine breast cancer cells; assay: as above; assay type: cell-based; details: drug(s) in SDM or MDM, 72 hours, unit inferred
Experimental: as §2, with “The samples were diluted with cell culture media to make 0.10, 1.0, 10, 100 and 1000 nM in 96 well plates.” left out
as §3

physchem = assay type: physicochemical
Experimental: The mixture is mixed and sonicated for five minutes. The solvent is then removed by rotoevaporation at approximately 60° C. to provide a film. Hot (˜60° C.) deionized water is added to the oil and the solution is allowed to cool to ˜23° C. The solution is then centrifuged to remove the sediment in a 1.5 mL microtube, at ˜13,200 rpm for 1 minute. The supernatant is collected and filtered through a 0.2 μm PTFE filter.
The resulting solution was dialyzed against H2O in 3500 MWCO tubing (SpectraPor). Resulting micelles were centrifuged at 5000g's for 10 minutes to precipitate unincorporated drug. […] Micelle solutions were concentrated by rotary evaporation under reduced pressure at room temperature, followed by centrifugation (5000g's for 10 minutes).

[8] = assay type: in vivo, rats; details: micelle formulation compared to the standard vehicle that employs CrEL
[9] = dogs; cited from earlier work
[10] = Drug solubilization by PEG-b-PLA micelles (drug level in water, reverse phase HPLC); details: SDM or MDM, PEG-b-PLA (4.2K:1.9K) micelles
Experimental: The drug-polymer mixture was dissolved in 0.50 mL acetonitrile (ACN). The ACN was removed at 60° C. under reduced pressure on a rotary evaporator resulting in the formation of a homogenous film, The drug-polymer film was rehydrated with 0.50 mL of DD H2O at 60° C. with gentle agitation resulting in a clear solution of drug-loaded PEG-b-PLA micelles. The micellar solution was filtered using a 0.45 μm filter, and the micelles were characterized in terms of size and loading by Dynamic Light Scattering (DLS) and HPLC respectively.
MDMS were prepared similarly to the SDMs by mixing 2.0 mg of each drug with 15 mg of the polymer. The procedure for the preparation and characterization of these micelles was identical to the SDMs.
The content of drug loaded in PEG-b-PLA micelles was quantified by reverse phase HPLC. The HPLC system used for quantifying was a Shimadzu prominence HPLC system (Shimadzu, JP), consisting of a LC-20AT pump, SIL-20AC HT autosampler, CTO-20AC column oven and a SPD-M20A diode array detector. A sample of 10 μL was injected into a Zorbax SB-C8 Rapid Resolution cartridge (4.6×75 mm, 3.5 micron, Agilent). The column temperature was maintained at 40° C. throughout the run. Two HPLC methods were developed to quantify the amount of the drug(s) loaded in PEG-b-PLA micelles.
The mobile phase was an isocratic mixture of 45% ACN and 54% aqueous phase containing 0.1% phosphoric acid and 1% methanol in DD H2O.
The mobile phase was a gradient mixture of ACN and aqueous phase containing 0.1% phosphoric acid and 1% methanol in DD H2O. […] With both HPLC methods samples were injected twice and reproducible and rapid separation of the drugs was achieved.
Mn of PEG and PLA of PEG-b-PLA was 4,200 and 1,900 g/mol, respectively (APC Inc., UK). ACN was removed by heating at 60° C. and reduced pressure. The resultant dry polymer film containing anti-cancer agent(s) was dissolved by addition of water (0.50 mL) at 60° C. with gentle agitation.
The resultant dry PEG-b-PLA film containing drugs was dissolved by the addition of water (0.50 mL) at 60° C. with gentle agitation.

[11] = drug without micelles; cited from earlier work
[12] = test system: pediatric acute lymphoblastic leukemia cell lines; details: combination of 17-AAG and ETO, four cell lines; cited from earlier work
[13] = Solubilization with Poloxamer F68 (reference example); assay type: physicochemical; details: analyte rapamycin
From the text: Several polymers that form micelles with drugs were surveyed for solubilizing a paclitaxel-rapamycin-17-AAG drug combination. […] For example, the PEG-PPG-PEG triblock polymer Poloxamer F68 is useful to solubilize many hydrophobic compounds such as resveratrol, a hydrophobic compound with reported anticancer activity. […] In these attempts, the micelles coagulated and deteriorated in aqueous solutions.
Results for forming micelles of the paclitaxel-rapamcyin-17-AAG combination with Poloxamer F68: […]

[14] = PTX/17-AAG 4.7:1, RAP/17-AAG 1:1, RAP/PTX 1:1, RAP/PTX/17-AAG 1:5:1
[15] = PTX/17-AAG 4.7:1, RAP/17-AAG 1:1, RAP/PTX 1:1, RAP/PTX/17-AAG 1:5:1, read-out: IC50

Compound: C=CCNC1=C2C[C@@H](C)C[C@H](OC)[C@H](O)[C@@H](C)/C=C(\C)[C@H](OC(N)=O)[C@@H](OC)/C=C\C=C(/C)C(=O)NC(=CC1=O)C2=O [17-AAG, 17-allylamino-17-demethoxygeldanamycin]
- % drug loading (wt. drug(s)/wt. polymer) [1]: 13.0 ± 0.9% and 11.3 ± 0.3%
- PEG-b-PLA micelle diameter [2]: 39.3 ± 2.9 nm
- initial drug level in water ([3]; analyte 17-AAG): 3.90 ± 0.28 mg/mL
- drug level @ 24 hr in water ([3]; analyte 17-AAG): 3.84 ± 0.18 mg/mL
- first-order rate constant ([4]; release of 17-AAG): 0.525 h⁻¹
- IC50 [5, 14]: 771 ± 163 nM
- IC50 [6]: 266 ± 48 nM
- IC50 [7, 14]: 118 ± 10 nM
- 17-AAG solubilized (physchem; PEG-PLA (12:6 kDa) micelles): 1.5 mg/mL
- solubility (physchem; PEG-PLA (12:6 kDa) micelles in water, aqueous with cosolvent or surfactant or cyclodextrin): ~1500 µg/mL (≈ 2560 µM)
- Renal clearance (CLrenal) [8]: increased
- hepatic clearance (CLhepatic) [8]: decreased
- maximum tolerated dose [9]: 100-200 mg/m^2/day
- drug level in water ([10]; analyte 17-AAG): 3.90 ± 0.28 mg/mL

Compound: CO[C@H]1/C=C\C=C(/C)C(=O)NC2=CC(=O)C(NCCN(C)C)=C(C[C@@H](C)C[C@H](OC)[C@H](O)[C@@H](C)/C=C(\C)[C@@H]1OC(N)=O)C2=O [17-DMAG, 17-dimethylamino-ethylamino-17-demethoxygeldanamycin]
- maximum tolerated dose [9]: 8 mg/m^2/day

Continued, in another order:

- % drug loading (wt. drug(s)/wt. polymer) [1]: 14.2 ± 1.5% and 11.5 ± 0.5%
- % drug loading (wt. drug(s)/wt. polymer) ([1]; listed as DCTX): 11.5%
- PEG-b-PLA micelle diameter [2]: 37.3 ± 1.7 nm
- drug precipitated at 24 hours [3]: ~73%
- % w/w drug(s) left @ 24 hr ([3]; analyte docetaxel): 26.8 ± 3.3 % w/w
- initial drug level in water ([3]; analyte docetaxel): 4.27 ± 0.44 mg/mL
- drug level @ 24 hr in water ([3]; analyte docetaxel): 1.14 ± 0.03 mg/mL
- time the micelles were physically stable [3]: approximately 6 hours
- drug level in water ([10]; analyte docetaxel): 4.27 ± 0.44 mg/mL
- drug level in water ([10]; analyte docetaxel, listed as DCTX): 4.27 mg/mL
Compound: CC(=O)O[C@@]12CO[C@@H]1C[C@H](O)[C@@]1(C)C(=O)[C@H](O)C3=C(C)[C@@H](OC(=O)[C@H](O)[C@@H](NC(=O)OC(C)(C)C)c4ccccc4)C[C@@](O)([C@@H](OC(=O)c4ccccc4)[C@H]21)C3(C)C [Docetaxel]
- first-order rate constant ([4]; release of docetaxel): 0.379 h⁻¹
- intrinsic solubility in water [11]: 0.0055 mg/mL

- % drug loading (wt. drug(s)/wt. polymer) [1]: 11.0 ± 0.5%
- % drug loading (wt. drug(s)/wt. polymer) ([1]; listed as ETO): 9.6%
- PEG-b-PLA micelle diameter [2]: 32.6 ± 1.0 nm
- drug precipitated at 24 hours [3]: ~68%
- % w/w drug(s) left @ 24 hr ([3]; analyte etoposide): 32.3 ± 3.4 % w/w
- initial drug level in water ([3]; analyte etoposide): 3.31 ± 0.15 mg/mL
- drug level @ 24 hr in water ([3]; analyte etoposide): 1.07 ± 0.16 mg/mL
- time the micelles were physically stable [3]: approximately 6 hours
- drug level in water ([10]; analyte etoposide): 3.31 ± 0.15 mg/mL
Compound: COc1cc([C@@H]2c3cc4c(cc3[C@@H](O[C@@H]3O[C@@H]5CO[C@@H](C)O[C@H]5[C@H](O)[C@H]3O)[C@H]3COC(=O)[C@H]23)OCO4)cc(OC)c1O [Etoposide]
- first-order rate constant ([4]; release of etoposide): 0.636 h⁻¹
- intrinsic solubility in water [11]: 0.0580 mg/mL
- decrease of the IC50 of ETO [12]: 10 fold

- % drug loading (wt. drug(s)/wt. polymer) [1]: 6.6 ± 1.3%
- PEG-b-PLA micelle diameter [2]: 36.9 ± 1.3 nm
- % w/w drug(s) left @ 24 hr ([3]; analyte rapamycin): 91.5 ± 0.2 % w/w
- initial drug level in water ([3]; analyte rapamycin): 1.84 ± 0.26 mg/mL
- drug level @ 24 hr in water ([3]; analyte rapamycin): 1.68 ± 0.23 mg/mL
- loading into micelles [13]: 4%
- drug level in water ([10]; analyte rapamycin): 1.84 ± 0.26 mg/mL
Compound: CO[C@H]1C[C@@H]2CC[C@@H](C)[C@@](O)(O2)C(=O)C(=O)N2CCCC[C@H]2C(=O)O[C@H]([C@H](C)C[C@@H]2CC[C@@H](O)[C@H](OC)C2)CC(=O)[C@H](C)/C=C(\C)[C@@H](O)[C@@H](OC)C(=O)[C@H](C)C[C@H](C)/C=C/C=C/C=C/1C [Rapamycin]
- first-order rate constant ([4]; release of rapamycin): 0.100 h⁻¹ and 0.081 h⁻¹
- IC50 [5, 15]: 590 ± 110 nM
- IC50 ([6]; read-out: IC50): 255 ± 37 nM
- IC50 [7, 15]: > 100000 nM
